According to patent US12251449B2, “Synthetic multidomain peptide biomaterials that inhibit inducible nitric oxide synthase” (William Marsh Rice University, priority 2019, dated 2025):
“Also recorded” adds a separate entry of the source. *1 amine or outer side, *2 acyl side, *3 side chain or, on linkers, in order; H or OH if unused. Where a SMILES comes first, the peptide text is derived from it. [ ]: non-standard residue; d: D form. X1 = CC(=N)NCCCC[C@H](N[*:1])C(=O)[*:2]

Columns and labels:
iNOS [1] = molecular target: T1, iNOS (Mus musculus, UniProt P29477); test: iNOS knockdown in vitro Greiss assay; type: cell-based
T1 construct: endogenous in cells; host or cells: RAW 264.7 murine macrophages stimulated with LPS and IFN-gamma
T1 sequence (P29477 1-1144): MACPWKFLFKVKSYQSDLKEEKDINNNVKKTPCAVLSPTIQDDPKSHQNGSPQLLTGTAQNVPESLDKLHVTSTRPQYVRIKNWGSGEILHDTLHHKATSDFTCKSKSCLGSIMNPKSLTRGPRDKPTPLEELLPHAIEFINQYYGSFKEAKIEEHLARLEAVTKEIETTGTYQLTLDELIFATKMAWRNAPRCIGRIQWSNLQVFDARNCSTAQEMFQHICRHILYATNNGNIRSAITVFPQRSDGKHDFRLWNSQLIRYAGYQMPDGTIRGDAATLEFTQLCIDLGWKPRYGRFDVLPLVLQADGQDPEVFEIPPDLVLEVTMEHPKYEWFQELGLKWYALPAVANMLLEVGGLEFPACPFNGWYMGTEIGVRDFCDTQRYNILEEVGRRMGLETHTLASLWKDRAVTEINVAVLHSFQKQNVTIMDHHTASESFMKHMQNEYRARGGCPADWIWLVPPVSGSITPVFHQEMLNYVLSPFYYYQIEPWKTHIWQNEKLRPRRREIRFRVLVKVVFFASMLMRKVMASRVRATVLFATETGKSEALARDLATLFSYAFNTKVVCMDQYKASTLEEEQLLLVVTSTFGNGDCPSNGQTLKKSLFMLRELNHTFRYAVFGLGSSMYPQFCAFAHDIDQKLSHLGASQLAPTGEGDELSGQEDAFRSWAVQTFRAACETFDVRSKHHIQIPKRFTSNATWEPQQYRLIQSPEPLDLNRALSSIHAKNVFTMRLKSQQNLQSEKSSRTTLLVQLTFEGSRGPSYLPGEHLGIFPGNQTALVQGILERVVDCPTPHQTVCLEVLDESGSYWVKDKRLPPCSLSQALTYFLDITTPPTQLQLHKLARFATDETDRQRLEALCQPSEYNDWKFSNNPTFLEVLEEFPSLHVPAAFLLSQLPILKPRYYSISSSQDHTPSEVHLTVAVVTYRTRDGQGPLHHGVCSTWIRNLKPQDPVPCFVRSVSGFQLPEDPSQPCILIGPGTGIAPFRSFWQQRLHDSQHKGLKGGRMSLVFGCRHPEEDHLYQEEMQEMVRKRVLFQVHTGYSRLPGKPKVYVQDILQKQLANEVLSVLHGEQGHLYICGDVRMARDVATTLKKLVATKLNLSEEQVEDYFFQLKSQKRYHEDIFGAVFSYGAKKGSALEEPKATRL
Protocol: iNOS knockdown in vitro Greiss assay. To evaluate the iNOS knockdown efficacy of various materials, the following procedure was used to test % iNOS inhibition of RAW 264.7 cells stimulated with Lipopolysaccharide (LPS, Thermo Fisher Scientific, Rockford, IL) and recombinant mouse IFN-7 (Biolegend, San Diego, CA). RAW macrophages were prepared at a stock concentration of 2.5×10^6 cells/mL, and plated at 2.5×10^5 cells per well in 24-well plates. For samples testing the efficacy of 2-D surface cell culture, 200 μL of MDP hydrogels was applied to evenly coat the surface of each well before addition of cells. Each experimental condition was performed in triplicate. The following controls were included in every experiment, 1) media alone, 2) stimulated cells alone, and 3) unstimulated cells alone. To each well, stimulation media or normal media was then added based on experimental requirement. Stimulation media was prepared with LPS (final concentration 1 μg/mL) and IFN-7 (final concentration 100 U/mL). For samples testing material efficacy in solution (e.g. free L-NIL), after 6 hrs of incubation at 37° C. with 5% CO2 the desired concentration of inhibitor was added to achieve a range of concentrations between 1 μM and 1 mM.
In all cases after 24 hours from time of stimulation, samples of cell media were collected from each well after mixing media by pipetting before collection. Media samples were placed into a 96-well plate and centrifuged at 5000 rpm for 10 min. Supernatants were removed and placed in a new clear 96-well plate, and samples were immediately analyzed using a colorimetric Greiss Assay (Cayman Chemical, Ann Arbor, MI) to assess nitrite levels (Bryan & Grisham, 2007). Color was allowed to develop for 10 min following addition of Greiss reagents, and absorbance was read at 540 nm on a plate reader. Percent iNOS inhibition for each sample was calculated by first subtracting the absorbance of the media-only baseline, and then converting to a percent of maximum nitrite signal as determined by the internal standard of stimulated cells alone.

iNOS [2] = test: Anti-nitrotyrosine immunostaining of subcutaneously injected hydrogels; type: in vivo, mice; conditions: subcutaneous implants, 3 and 7 days post injection
Protocol: Subcutaneous experiments and histology. C57BL/6J female mice were purchased from The Jackson Laboratory at age 8-12 weeks for subcutaneous characterization experiments. Mice were housed under specific pathogen-free conditions in standard temperature and lighting conditions with free access to food and water, and experiments were conducted with approval of the Institutional Animal Care and Use Committee (IACUC) at Rice University and according to NIH guidelines. Mice were injected with 100 μL MDP hydrogels in each of four separate sites in the subcutaneous space of the dorsal flank after the skin was shaved and sterilized with alcohol. At days 3, 7, 14, and 21 the mice were euthanized and the dorsal skin around the entire implant was removed, fixed overnight in 10% neutral buffered formalin, processed and paraffin embedded, and finally sectioned at […] thickness for staining using standard Masson's trichrome or hematoxylin and eosin (H&E) procedures, as well as immunohistochemical analyses (e.g., anti-nitrotyrosine IHC, or α-SMA blood vessel analysis).
Immunohistochemistry staining was performed on hydrogel implant tissue sections to further study in vivo properties of the L-NIL-MDP compared to related cationic MDPs. Anti-nitrotyrosine immunostaining was used to assess relative levels of nitrosylation of tyrosine within and around the subcutaneously injected hydrogel implants as a marker of iNOS inhibition (FIGS. 7A-H). It is known that the formation of nitric oxide (NO) and other nitrogen oxides in vivo can lead to observable post-translation modifications of peptides and proteins (Ischiropoulos, 2003). For example, surface-exposed 3-nitrotyrosine can be used as a marker of cell or tissue inflammation and damage by reactive nitrogen and oxygen species such as NO (Ahsan, 2013). The higher the local levels of iNOS activity, the greater should be the density of nitrosylated tyrosine. Therefore, visualization of nitrotyrosine levels by targeted antibodies can serve as a general indication of in vivo iNOS activity, or in the case of the L-NIL-MDP, local iNOS inhibition.

[3] = IgG release kinetics from hydrogels; type: physicochemical; conditions: compared with alginate and K2-MDP
Text: Whether the drug-mimicking L-NIL-MDP hydrogel could effectively load and control the delivery of IgG compared to other biomaterials was investigated.

With `CC(=N)NCCCC[C@H](NC(=O)[C@H](CCCCNC(C)=N)NC(=O)[C@H](CC(C)C)NC(=O)[C@H](CO)NC(=O)[C@H](CC(C)C)NC(=O)[C@H](CO)NC(=O)[C@H](CC(C)C)NC(=O)[C@H](CO)NC(=O)[C@H](CC(C)C)NC(=O)[C@H](CO)NC(=O)[C@H](CC(C)C)NC(=O)[C@H](CO)NC(=O)[C@H](CC(C)C)NC(=O)[C@H](CO)NC(=O)[C@H](CCCCNC(C)=N)NC(=O)[C@H](CCCCNC(C)=N)NC(C)=O)C(N)=O` [L-NIL-MDP] (Ac-[X1][X1]SLSLSLSLSLSL[X1][X1]-NH2) the “free L-NIL concentration giving a comparable level of iNOS inhibition” value (iNOS [1]; hydrogel surface culture compared with free L-NIL in solution) was ~100 µM, the “iNOS inhibition (in words)” value (iNOS [1]; stimulated RAW macrophages cultured on the hydrogel) was “greatest degree of iNOS inhibition” and the “nitrotyrosine staining intensity (in words)” value (iNOS [2]) was “significantly lower; also recorded: lowest degree of nitrotyrosine staining”. For the same compound, the “control of IgG release (in words)” value [3] was “able to control the release of IgG more effectively”.
